Experimental data as given in PubChem BioAssay (NCI).
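Cultured in 96-well plates, cells were exposed to test compound for 48 hours across five concentrations. GI50 marks 50% less growth. TGI: concentration producing complete growth inhibition.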

What was measured:
Assay in all cases: growth of human tumour cells (NCI), 48 h
UACC-62 melanoma = test system: UACC-62 melanoma
CCRF-CEM leukemia = test system: CCRF-CEM leukemia
OVCAR-4 ovarian = test system: OVCAR-4 ovarian
SF-268 CNS = test system: SF-268 CNS
SNB-19 CNS = test system: SNB-19 CNS
HOP-62 NSCLC = test system: HOP-62 NSCLC
HOP-92 NSCLC = test system: HOP-92 NSCLC
T-47D breast = test system: T-47D breast
MDA-MB-231 breast = test system: MDA-MB-231 breast
BT-549 breast = test system: BT-549 breast

| SMILES | TGI (UACC-62 melanoma) [µM] | TGI (CCRF-CEM leukemia) [µM] | TGI (OVCAR-4 ovarian) [µM] | TGI (SF-268 CNS) [µM] | TGI (SNB-19 CNS) [µM] | TGI (HOP-62 NSCLC) [µM] | TGI (HOP-92 NSCLC) [µM] | GI50 (UACC-62 melanoma) [µM] | GI50 (CCRF-CEM leukemia) [µM] | GI50 (OVCAR-4 ovarian) [µM] | GI50 (SF-268 CNS) [µM] | GI50 (SNB-19 CNS) [µM] | GI50 (HOP-62 NSCLC) [µM] | GI50 (T-47D breast) [µM] | TGI (T-47D breast) [µM] | GI50 (MDA-MB-231 breast) [µM] | TGI (MDA-MB-231 breast) [µM] | TGI (BT-549 breast) [µM] | GI50 (BT-549 breast) [µM] |
| --- | --- | --- | --- | --- | --- | --- | --- | --- | --- | --- | --- | --- | --- | --- | --- | --- | --- | --- | --- |
| CN(C)CCNC(=O)c1cccc2ccc(-c3ccc(-c4ccccc4)cc3)nc12 | 32.2 | 11.5 | 6.74 | 10.4 | 25.1 | 10.3 | 11.8 | – | – | – | – | – | – | – | – | – | – | – | – |
| CCCCCCCCCCCCCC(=O)CSCCNC(=O)CCNC(=O)[C@@H](O)C(C)(C)COP(=O)(O)OP(=O)(O)OCC1OC(n2cnc3c(N)ncnc32)C(O)C1OP(=O)(O)O (stereo not given in full) | 29.5 | 99.2 | 22.3 | 47.7 | 35.2 | 32.6 | 24.5 | – | – | – | – | – | – | – | – | – | – | – | – |
| COc1ccccc1NS(=O)(=O)c1ccc2oc(SC(C)C)nc2c1 | > 100 | 56.1 | 77.6 | > 100 | > 100 | > 100 | 13 | 18.5 | 11.9 | 8.67 | 29.5 | 37.7 | 31.2 | 8.98 | > 100 | 12.4 | 52 | – | – |
| CCOC(=O)/C(=C/c1ccc(N(CCC#N)CCC#N)cc1C)NC(=O)/C=C/c1ccccc1 | > 100 | > 100 | – | > 100 | > 100 | > 100 | – | – | – | – | – | – | – | – | – | – | – | – | – |
| NNC(=O)c1ccc(OCc2nc3ccccc3[nH]2)cc1 | > 100 | – | > 100 | > 100 | > 100 | – | > 100 | – | – | – | – | – | – | – | > 100 | – | > 100 | > 100 | – |
| Cn1c(=O)c2[nH]cnc2n(CC(N)=O)c1=O | > 100 | > 100 | – | > 100 | > 100 | > 100 | > 100 | – | – | – | – | – | – | – | – | – | – | – | – |
| CC(=O)NNc1nc(C)c(C(=O)NNC(=O)C(=O)Nc2ccc([N+](=O)[O-])cc2C#N)s1 | > 100 | > 100 | > 100 | > 100 | > 100 | > 100 | – | – | – | – | – | – | – | – | – | – | – | – | – |
| CC(C)(C)OC(=O)c1cccnc1/C=N/O | > 100 | > 100 | > 100 | > 100 | > 100 | > 100 | > 100 | – | – | – | – | – | – | – | – | – | – | – | – |
| C=C(C)C(=O)O[C@@H]1C/C(C)=C\[C@H](OC(C)=O)C[C@](C)(O)/C=C2/OC(=O)C(COC(C)=O)=C21 | 2.1 | – | – | – | 41.8 | > 100 | 37.5 | – | – | – | – | – | – | – | 22.1 | – | 2.63 | 3.91 | – |
| COc1cc(C2C3=C(COC3=O)N(CCO)c3cc4c(cc32)OCO4)cc(OC)c1O (stereo not given) | > 50 | > 50 | > 50 | > 50 | > 18.8 | > 50 | – | – | 1.51 | 2.99 | 2.18 | 2.27 | 2.35 | 1.97 | > 50 | 6.07 | 46.2 | > 34.3 | 2.28 |
| CCOC(=O)C1([Se]c2ccccc2)CCCC1=O (stereo not given) | 35.2 | 56.8 | 36.8 | 27.4 | > 100 | > 100 | 54.5 | – | – | – | – | – | – | – | – | – | – | – | – |
| COC1C2c3cc4c(cc3CC(C#N)(c3ccccc32)N1C(=O)c1ccccc1)OCO4 (stereo not given) | > 100 | > 100 | – | > 100 | > 100 | > 100 | > 100 | – | – | – | – | – | – | – | – | – | – | – | – |
